Data taken from patent US8841309B2, “Substituted pyrazines and their use in the treatment of disease” (Boehringer Ingelheim International GmbH, priority 2012, dated 2014).

Target: T1, ENaC (Mus musculus, UniProt Q61180+Q9WU38+Q9WU39)
T1 construct: Mouse kidney M-1 cells were cultivated in DMEM containing 5% FCS and 5 μM dexamethasone; endogenous in cells; host or cells: mouse kidney M-1 cells
T1 sequence (Q61180 1-699): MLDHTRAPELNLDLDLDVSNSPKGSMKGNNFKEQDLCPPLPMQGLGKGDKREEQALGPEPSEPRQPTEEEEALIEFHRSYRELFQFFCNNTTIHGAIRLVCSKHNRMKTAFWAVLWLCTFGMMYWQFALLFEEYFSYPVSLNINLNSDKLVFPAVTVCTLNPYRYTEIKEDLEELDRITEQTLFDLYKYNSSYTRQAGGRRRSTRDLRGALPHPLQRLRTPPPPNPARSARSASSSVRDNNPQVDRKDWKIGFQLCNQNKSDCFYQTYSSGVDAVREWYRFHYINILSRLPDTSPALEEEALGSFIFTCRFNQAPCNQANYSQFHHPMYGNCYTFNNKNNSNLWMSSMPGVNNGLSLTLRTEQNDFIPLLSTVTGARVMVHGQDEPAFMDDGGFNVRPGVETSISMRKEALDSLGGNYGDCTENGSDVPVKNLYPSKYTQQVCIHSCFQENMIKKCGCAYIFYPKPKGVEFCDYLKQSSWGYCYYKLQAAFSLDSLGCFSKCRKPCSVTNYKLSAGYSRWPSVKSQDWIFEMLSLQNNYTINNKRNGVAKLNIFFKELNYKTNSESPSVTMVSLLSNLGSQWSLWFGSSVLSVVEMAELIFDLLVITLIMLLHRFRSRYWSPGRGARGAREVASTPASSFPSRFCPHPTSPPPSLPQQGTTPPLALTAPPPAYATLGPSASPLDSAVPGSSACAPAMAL
T1 sequence (Q9WU38 1-638): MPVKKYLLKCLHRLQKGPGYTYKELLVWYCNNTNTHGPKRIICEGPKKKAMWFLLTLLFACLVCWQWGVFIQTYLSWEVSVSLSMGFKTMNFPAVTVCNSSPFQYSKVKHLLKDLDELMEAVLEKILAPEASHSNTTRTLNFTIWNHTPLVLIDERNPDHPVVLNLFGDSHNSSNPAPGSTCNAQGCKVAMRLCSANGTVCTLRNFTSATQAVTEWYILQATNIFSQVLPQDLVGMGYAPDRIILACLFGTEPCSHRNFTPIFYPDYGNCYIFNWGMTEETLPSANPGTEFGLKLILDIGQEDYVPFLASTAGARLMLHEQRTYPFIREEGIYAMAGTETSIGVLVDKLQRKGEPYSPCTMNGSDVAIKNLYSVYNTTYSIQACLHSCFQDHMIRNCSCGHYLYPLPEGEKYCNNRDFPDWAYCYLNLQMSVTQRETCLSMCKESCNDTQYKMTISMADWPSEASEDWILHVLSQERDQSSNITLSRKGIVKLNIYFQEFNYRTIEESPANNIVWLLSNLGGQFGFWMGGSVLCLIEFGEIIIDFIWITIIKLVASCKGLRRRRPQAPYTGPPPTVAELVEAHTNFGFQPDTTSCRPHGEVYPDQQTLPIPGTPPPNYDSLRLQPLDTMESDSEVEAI
T1 sequence (Q9WU39 1-655): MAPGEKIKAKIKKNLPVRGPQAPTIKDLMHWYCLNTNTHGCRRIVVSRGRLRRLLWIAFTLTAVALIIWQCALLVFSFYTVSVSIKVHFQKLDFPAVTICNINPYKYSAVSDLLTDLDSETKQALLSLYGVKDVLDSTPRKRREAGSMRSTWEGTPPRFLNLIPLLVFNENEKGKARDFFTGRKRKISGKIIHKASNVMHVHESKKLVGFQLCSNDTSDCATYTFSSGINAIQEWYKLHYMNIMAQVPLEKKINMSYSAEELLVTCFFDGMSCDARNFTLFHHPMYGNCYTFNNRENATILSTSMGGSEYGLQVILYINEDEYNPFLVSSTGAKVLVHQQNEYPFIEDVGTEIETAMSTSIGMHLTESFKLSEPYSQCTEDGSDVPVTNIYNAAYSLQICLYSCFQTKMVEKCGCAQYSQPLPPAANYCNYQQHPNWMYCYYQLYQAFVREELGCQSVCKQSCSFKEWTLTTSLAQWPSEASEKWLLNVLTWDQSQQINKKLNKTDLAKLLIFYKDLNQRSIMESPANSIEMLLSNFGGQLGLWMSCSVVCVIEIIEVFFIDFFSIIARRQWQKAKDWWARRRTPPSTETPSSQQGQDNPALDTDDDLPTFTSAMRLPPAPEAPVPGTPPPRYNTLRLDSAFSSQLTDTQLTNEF
Assay: Ussing chamber: short circuit current (I_sc) in mouse kidney M-1 cells, amiloride-sensitive
Type: cell-based
Details: compound applied to apical solution, 37° C.
Protocol: Ussing Chamber: Mouse kidney M-1 cells were cultivated in DMEM containing 5% FCS and 5 μM dexamethasone for 10 to 12 days on polyester transwell filters. Filters were inserted into a teflon-coated well-plate which fit into the in-house ussing chamber system. Prior to measurement the medium of M-1 cells was replaced with Caco-2 transport buffer (Invitrogen, Germany). During measurements, the Ussing chamber temperature was kept at 37° C. Short circuit currents (I_sc) were measured in the voltage-clamp mode using an in-house built amplifier (Boehringer Ingelheim, Biberach) with the software package Lab View for data acquisition and analysis. The transepithelial electrical resistance (TEER) was determined by the application of voltage steps of ±5 mV every 5 sec. Compounds were administered at a final concentration of 3 μM or at increasing concentrations (1-3-10 μM) to the apical solution. At the end of each experiment the amiloride sensitive I_SC was measured by adding 3 μM amiloride to the apical compartment. Results are expressed as inhibition in percent of the amiloride effect or as IC50.

SMILES | IC50 [nM]
NC(=NC(=O)c1nc(Cl)c(N)nc1N)N[C@@H]1C[N+]2(Cc3ccc(OCc4ccccc4)cc3)CCC1CC2 [Example 19] | 32
NC(=NC(=O)c1nc(Cl)c(N)nc1N)N[C@@H]1C[N+]2(Cc3nc4ccccc4s3)CCC1CC2 [Example 20] | 29
CS(=O)(=O)c1ccc(C[N+]23CCC(CC2)[C@H](NC(N)=NC(=O)c2nc(Cl)c(N)nc2N)C3)cc1 [Example 21] | 176
COc1ccccc1C[N+]12CCC(CC1)[C@H](NC(N)=NC(=O)c1nc(Cl)c(N)nc1N)C2 [Example 22] | 92
CC#CC[N+]12CCC(CC1)[C@H](NC(N)=NC(=O)c1nc(Cl)c(N)nc1N)C2 [Example 23] | 172
CCNC(=O)C[N+]12CCC(CC1)[C@H](NC(N)=NC(=O)c1nc(Cl)c(N)nc1N)C2 [Example 24] | 56
NC(=O)c1ccc(C[N+]23CCC(CC2)[C@H](NC(N)=NC(=O)c2nc(Cl)c(N)nc2N)C3)cc1 [Example 25] | 693
NC(=NC(=O)c1nc(Cl)c(N)nc1N)N[C@@H]1C[N+]2(Cc3ccc(F)c(Cl)c3)CCC1CC2 [Example 26] | 13
NC(=NC(=O)c1nc(Cl)c(N)nc1N)N[C@@H]1C[N+]2(Cc3cccc(Cl)c3)CCC1CC2 [Example 27] | 12
COc1cc(C[N+]23CCC(CC2)[C@H](NC(N)=NC(=O)c2nc(Cl)c(N)nc2N)C3)cc(OC)c1 [Example 28] | 80
NC(=NC(=O)c1nc(Cl)c(N)nc1N)N[C@@H]1C[N+]2(Cc3ccc(Cl)s3)CCC1CC2 [Example 29] | 29
CCN(CC)C(=O)C[N+]12CCC(CC1)[C@H](NC(N)=NC(=O)c1nc(Cl)c(N)nc1N)C2 [Example 30] | 35
Cc1nc(C[N+]23CCC(CC2)[C@H](NC(N)=NC(=O)c2nc(Cl)c(N)nc2N)C3)cs1 [Example 31] | 54
N#Cc1ccc(C[N+]23CCC(CC2)[C@H](NC(N)=NC(=O)c2nc(Cl)c(N)nc2N)C3)cc1 [Example 32] | 202
N#Cc1cccc(C[N+]23CCC(CC2)[C@H](NC(N)=NC(=O)c2nc(Cl)c(N)nc2N)C3)c1 [Example 33] | 38
NC(=NC(=O)c1nc(Cl)c(N)nc1N)N[C@@H]1C[N+]2(CC(=O)NCc3ccccc3)CCC1CC2 [Example 34] | 7
NC(=NC(=O)c1nc(Cl)c(N)nc1N)N[C@@H]1C[N+]2(Cc3cscn3)CCC1CC2 [Example 35] | 150
NC(=NC(=O)c1nc(Cl)c(N)nc1N)N[C@@H]1C[N+]2(Cc3cc(F)cc(F)c3)CCC1CC2 [Example 36] | 30
COc1cccc(C[N+]23CCC(CC2)[C@H](NC(N)=NC(=O)c2nc(Cl)c(N)nc2N)C3)c1OC [Example 37] | 34
NC(=NC(=O)c1nc(Cl)c(N)nc1N)N[C@@H]1C[N+]2(Cc3ccc(F)c(F)c3)CCC1CC2 [Example 38] | 23
NC(=NC(=O)c1nc(Cl)c(N)nc1N)N[C@@H]1C[N+]2(CC(=O)OCc3ccccc3)CCC1CC2 [Example 39] | 23
NC(=NC(=O)c1nc(Cl)c(N)nc1N)N[C@@H]1C[N+]2(Cc3ccc(CC(=O)O)cc3)CCC1CC2 [Example 40] | 625
NC(=NC(=O)c1nc(Cl)c(N)nc1N)N[C@@H]1C[N+]2(CC(=O)c3ccccc3)CCC1CC2 [Example 41] | 63

SMILES | IC50 [nM]
CCOC(=O)C[N+]12CCC(CC1)[C@H](NC(N)=NC(=O)c1nc(Cl)c(N)nc1N)C2 [Example 42] | 191
NC(=NC(=O)c1nc(Cl)c(N)nc1N)N[C@@H]1C[N+]2(CC(=O)NCc3ccc(Cl)cc3)CCC1CC2 [Example 44] | 2
NC(=NC(=O)c1nc(Cl)c(N)nc1N)N[C@@H]1C[N+]2(Cc3ccncc3)CCC1CC2 [Example 45] | 279
CC(C)(C)OC(=O)c1ccc(C[N+]23CCC(CC2)[C@H](NC(N)=NC(=O)c2nc(Cl)c(N)nc2N)C3)cc1 [Example 46] | 267
NC(=NC(=O)c1nc(Cl)c(N)nc1N)N[C@@H]1C[N+]2(Cc3nnsc3Cl)CCC1CC2 [Example 47] | 226
NC(=NC(=O)c1nc(Cl)c(N)nc1N)N[C@@H]1C[N+]2(Cc3ccc(SC(F)(F)F)cc3)CCC1CC2 [Example 48] | 23
CC(C)NC(=O)C[N+]12CCC(CC1)[C@H](NC(N)=NC(=O)c1nc(Cl)c(N)nc1N)C2 [Example 49] | 29
NC(=NC(=O)c1nc(Cl)c(N)nc1N)N[C@@H]1C[N+]2(Cc3cccnc3)CCC1CC2 [Example 50] | 104
NC(=NC(=O)c1nc(Cl)c(N)nc1N)N[C@@H]1C[N+]2(Cc3ccc(OC(F)(F)F)cc3)CCC1CC2 [Example 51] | 89
CSc1ccc(C[N+]23CCC(CC2)[C@H](NC(N)=NC(=O)c2nc(Cl)c(N)nc2N)C3)cc1 [Example 52] | 67
NC(=NC(=O)c1nc(Cl)c(N)nc1N)N[C@@H]1C[N+]2(CC3CCCCC3)CCC1CC2 [Example 53] | 70
NC(=NC(=O)c1nc(Cl)c(N)nc1N)N[C@@H]1C[N+]2(Cc3ccccc3OC(F)(F)F)CCC1CC2 [Example 54] | 69
NC(=NC(=O)c1nc(Cl)c(N)nc1N)N[C@@H]1C[N+]2(CC(=O)NCCc3ccccc3)CCC1CC2 [Example 55] | 1
CSc1cccc(C[N+]23CCC(CC2)[C@H](NC(N)=NC(=O)c2nc(Cl)c(N)nc2N)C3)c1 [Example 56] | 12
NC(=NC(=O)c1nc(Cl)c(N)nc1N)N[C@@H]1C[N+]2(CC(=O)N3CCOCC3)CCC1CC2 [Example 57] | 71
NC(=NC(=O)c1nc(Cl)c(N)nc1N)N[C@@H]1C[N+]2(CC(=O)Nc3ccccc3)CCC1CC2 [Example 58] | 25
COC(=O)c1ccc(CCNC(=O)C[N+]23CCC(CC2)[C@H](NC(N)=NC(=O)c2nc(Cl)c(N)nc2N)C3)cc1 [Example 61] | 2
NC(=NC(=O)c1nc(Cl)c(N)nc1N)N[C@@H]1C[N+]2(CC(=O)N3CCN(c4ccccn4)CC3)CCC1CC2 [Example 62] | 20
N#Cc1ccc(CNC(=O)C[N+]23CCC(CC2)[C@H](NC(N)=NC(=O)c2nc(Cl)c(N)nc2N)C3)cc1 [Example 63] | 30
CCOC(=O)N1CCC(NC(=O)C[N+]23CCC(CC2)[C@H](NC(N)=NC(=O)c2nc(Cl)c(N)nc2N)C3)CC1 [Example 64] | 76
CN(CCc1ccccc1)C(=O)C[N+]12CCC(CC1)[C@H](NC(N)=NC(=O)c1nc(Cl)c(N)nc1N)C2 [Example 65] | 2
NC(=NC(=O)c1nc(Cl)c(N)nc1N)N[C@@H]1C[N+]2(CC(=O)N3CCN(c4ncccn4)CC3)CCC1CC2 [Example 66] | 22
